Results published in patent US10774092B2 (SALK INSTITUTE FOR BIOLOGICAL STUDIES, priority 2014, dated 2020).
Where a name gives a salt, the structure may show the parent alone.

These compounds were tested against ULK1 (assay: ULK1 inhibition assay (Table 1)). Details: * = tested as a mixture of regioisomers.
Format: biochemical
Work on `CN(c1ccccc1)c1nc(Nc2ccc3c(c2)CCC(=O)N3)ncc1C(F)(F)F` [Example 184a, 6-((4-(methyl(phenyl)amino)-5-(trifluoromethyl)pyrimidin-2-yl)amino)-3,4-dihydroquinolin-2(1H)-one] yielded an IC50 of 200 to 2000 nM.
For `COc1cc(Nc2ncc(Br)c(Nc3ccccc3O)n2)cc(OC)c1OC` [Example 317, 2-((5-bromo-2-((3,4,5-trimethoxyphenyl)amino)pyrimidin-4-yl)amino)phenol], the IC50 was under 200 nM.
Work on `N#Cc1cnc(NC2CC2)nc1Nc1ccc2c(c1)CCC(=O)N2` [Example 287] yielded an IC50 of over 2000 nM.
With `CC(CCl)Nc1nc(Nc2ccc3c(c2)CCC(=O)N3)ncc1C(F)(F)F` (stereo not drawn) [Example 183c, 6-((4-((1-chloropropan-2-yl)amino)-5-(trifluoromethyl)pyrimidin-2-yl)amino)-3,4-dihydroquinolin-2(1H)-one] the IC50 was over 2000 nM.
Work on `OC1Nc2ccc(Nc3ncc(C(F)(F)F)c(NC4CC4)n3)cc2O1` (stereo not drawn) [Example 208b, 6-((4-(cyclopropylamino)-5-(trifluoromethyl)pyrimidin-2-yl)amino)-2,3-dihydrobenzo[d]oxazol-2-ol] yielded an IC50 of under 200 nM.
With `O=C1Cc2cc(Nc3ncc(C(F)(F)F)c(NC4CC4)n3)ccc2N1` [Example 240, 5-((4-(cyclopropylamino)-5-(trifluoromethyl)pyrimidin-2-yl)amino)indolin-2-one] the IC50 was under 200 nM.
With `COc1cc(Nc2ncc(Br)c(Oc3ccccc3N)n2)cc(OC)c1OC` [Example 254b, 4-(2-aminophenoxy)-5-bromo-N-(3,4,5-trimethoxyphenyl)pyrimidin-2-amine] the IC50 was under 200 nM.
`c1cc(NC2CC2)nc(Nc2ccc3c(c2)OCCO3)n1` [Example 224, N4-cyclopropyl-N2-(2,3-dihydrobenzo[b][1,4]dioxin-6-yl)pyrimidine-2,4-diamine] gave an IC50 of over 2000 nM.
`COc1cc(Nc2ncc(Br)c(Oc3ccccc3C(=O)N(C)C)n2)cc(OC)c1OC` [Example 245, 2-((5-bromo-2-((3,4,5-trimethoxyphenyl)amino)pyrimidin-4-yl)oxy)-N,N-dimethylbenzamide] showed an IC50 of under 200 nM.
For `O=C1CCc2cc(Nc3ncc(C(F)(F)F)c(OCCNC(=O)OCc4ccccc4)n3)ccc2N1` [Example 261, Benzyl (2-((2-((2-oxo-1,2,3,4-tetrahydroquinolin-6-yl)amino)-5-(trifluoromethyl)pyrimidin-4-yl)oxy)ethyl)carbamate], the IC50 was over 2000 nM.
Compound `FC(F)(F)c1cnc(Nc2ccon2)nc1NC1CC1` [Example 214a, N4-cyclopropyl-N2-(isoxazol-3-yl)-5-(trifluoromethyl)pyrimidine-2,4-diamine] has an IC50 of 200 to 2000 nM.
In the case of `FC(F)(F)c1cnc(Nc2cccc3ncccc23)nc1NC1CC1` [Example 278, N4-cyclopropyl-N2-(quinolin-5-yl)-5-(trifluoromethyl) pyrimidine-2,4-diamine], the IC50 is reported as over 2000 nM.
Compound `O=C1CCc2cc(Nc3ncc(C(F)(F)F)c(OCCNCCO)n3)ccc2N1` [Example 212b, 6-((4-(2-((2-hydroxyethyl)amino)ethoxy)-5-(trifluoromethyl)pyrimidin-2-yl)amino)-3,4-dihydroquinolin-2(1H)-one] has an IC50 of 200 to 2000 nM.
Compound `COc1cc(Nc2ncc(Br)c(Oc3ccccc3C(=O)NC3CC3)n2)cc(OC)c1OC` [Example 270, 2-((5-bromo-2-((3,4,5-trimethoxyphenyl)amino)pyrimidin-4-yl)oxy)-N-cyclopropylbenzamide] has an IC50 of 200 to 2000 nM.
For `CC(Cl)CNc1nc(Nc2ccc3c(c2)CCC(=O)N3)ncc1C(F)(F)F` (stereo not drawn) [Example 183b, 6-((4-((2-chloropropyl)amino)-5-(trifluoromethyl)pyrimidin-2-yl)amino)-3,4-dihydroquinolin-2(1H)-one], the IC50 was under 200 nM.
Work on `N=c1ccon1-c1ncc(C(F)(F)F)c(NC2CC2)n1` [Example 214b, N-cyclopropyl-2-(3-iminoisoxazol-2(3H)-yl)-5-(trifluoromethyl)pyrimidin-4-amine] yielded an IC50 of over 2000 nM.
In the case of `NCCCNc1nc(Nc2ccc3c(c2)CCC(=O)N3)ncc1C(F)(F)F` [Example 313, 6-((4-((3-aminopropyl)amino)-5-(trifluoromethyl)pyrimidin-2-yl)amino)-3,4-dihydroquinolin-2(1H)-one.HCl], the IC50 is reported as under 200 nM.
Compound `COc1cc(Nc2ncc(Br)c(Oc3ccccc3C(N)=O)n2)cc(OC)c1OC` [Example 249, 2-((5-bromo-2-((3,4,5-trimethoxyphenyl)amino)pyrimidin-4-yl)oxy)benzamide] has an IC50 of under 200 nM.
`O=c1[nH]c2ccc(Nc3nccc(NC4CC4)n3)cc2[nH]1` [Example 232, 5-((4-(cyclopropylamino)pyrimidin-2-yl)amino)-1,3-dihydro-2H-benzo[d]imidazol-2-one] gave an IC50 of over 2000 nM.
In the case of `O=c1[nH]c2ccc(Nc3ncc(Br)c(Nc4ccc5[nH]c(=O)[nH]c5c4)n3)cc2[nH]1` [Example 233, 5,5′-((5-bromopyrimidine-2,4-diyl)bis(azanediyl))bis(1,3-dihydro-2H-benzoimidazol-2-one)], the IC50 is reported as under 200 nM.
In the case of `c1cc(NC2CC2)nc(Nc2cnc3[nH]ccc3c2)n1` [Example 204, N4-cyclopropyl-N2-(1H-pyrrolo[2,3-b]pyridin-5-yl)pyrimidine-2,4-diamine], the IC50 is reported as over 2000 nM.
In the case of `O=C1CCc2cc(Nc3ncc(C(F)(F)F)c(OC4COC4)n3)ccc2N1` [Example 231a, 6-((4-(oxetan-3-yloxy)-5-(trifluoromethyl)pyrimidin-2-yl)amino)-3,4-dihydroquinolin-2(1H)-one], the IC50 is reported as under 200 nM.
For `COc1cc(Nc2ncc(Cl)c(N(C)C(=O)c3ccccc3O)n2)cc(OC)c1OC` [Example 234b, N-(5-chloro-2-((3,4,5-trimethoxyphenyl)amino)pyrimidin-4-yl)-2-hydroxy-N-methylbenzamide], the IC50 was 200 to 2000 nM.
`FC(F)(F)c1cnc(Nc2ccc(Nc3ncc(C(F)(F)F)c(NC4CC4)n3)cc2)nc1NC1CC1` [Example 304b, N2,N2′-(1,4-phenylene)bis(N4-cyclopropyl-5-(trifluoromethyl)pyrimidine-2,4-diamine)] gave an IC50 of over 2000 nM.
`CNC(=O)c1cccc(Oc2nc(Nc3cc(OC)c(OC)c(OC)c3)ncc2Br)c1` [Example 242, 3-((5-bromo-2-((3,4,5-trimethoxyphenyl)amino)pyrimidin-4-yl)oxy)-N-methylbenzamide] was tested, and the IC50 was 200 to 2000 nM.
`O=C1CCc2cc(Nc3ncc(C(F)(F)F)c(Oc4ccccc4)n3)ccc2N1` [Example 300a, 6-((4-phenoxy-5-(trifluoromethyl)pyrimidin-2-yl)amino)-3,4-dihydroquinolin-2(1H)-one] gave an IC50 of over 2000 nM.
In the case of `COc1cc(Nc2ncc(Br)c(Oc3ccccc3)n2)cc(OC)c1OC` [Example 266, 5-bromo-4-phenoxy-N-(3,4,5-trimethoxyphenyl)pyrimidin-2-amine], the IC50 is reported as under 200 nM.
`COCc1ccccc1Oc1nc(Nc2cc(OC)c(OC)c(OC)c2)ncc1Br` [Example 274, 5-bromo-4-(2-(methoxymethyl)phenoxy)-N-(3,4,5-trimethoxyphenyl)pyrimidin-2-amine] was tested, and the IC50 was under 200 nM.
`O=[N+]([O-])c1cnc(NC2CC2)nc1NC1CC1` [Example 291b, N2,N4-dicyclopropyl-5-nitropyrimidine-2,4-diamine] was tested, and the IC50 was over 2000 nM.
For `COc1cc(Nc2ncc(Br)c(Nc3ccccc3)n2)cc(OC)c1OC` [Example 293, 5-bromo-N4-phenyl-N2-(3,4,5-trimethoxyphenyl)pyrimidine-2,4-diamine], the IC50 was under 200 nM.
Work on `O=C1CCc2cc(Nc3nc(NC4CC4)c4ccccc4n3)ccc2N1` [Example 263, 6-((4-(cyclopropylamino)quinazolin-2-yl)amino)-3,4-dihydroquinolin-2(1H)-one] yielded an IC50 of over 2000 nM.
In the case of `COc1cc(Nc2ncc(Br)c(Oc3ccccc3NC(=O)C3CC3)n2)cc(OC)c1OC` [Example 281, N-(2-((5-bromo-2-((3,4,5-trimethoxyphenyl)amino)pyrimidin-4-yl)oxy)phenyl)cyclopropanecarboxamide], the IC50 is reported as under 200 nM.
Compound `COc1cc(Nc2ncc(Br)c(Oc3ccccc3NC(C)=O)n2)cc(OC)c1OC` [Example 254a, N-(2-((5-bromo-2-((3,4,5-trimethoxyphenyl)amino)pyrimidin-4-yl)oxy)phenyl)acetamide] has an IC50 of under 200 nM.
For `CNC(=O)CCOc1nc(Nc2cc(OC)c(OC)c(OC)c2)ncc1Br` [Example 316, 3-((5-bromo-2-((3,4,5-trimethoxyphenyl)amino)pyrimidin-4-yl)oxy)-N-methylpropanamide], the IC50 was under 200 nM.
Compound `CNC(=O)c1c(O)cccc1Oc1nc(Nc2cc(OC)c(OC)c(OC)c2)ncc1Br` [Example 257, 2-((5-bromo-2-((3,4,5-trimethoxyphenyl)amino)pyrimidin-4-yl)oxy)-6-hydroxy-N-methylbenzamide] has an IC50 of under 200 nM.
`CN(c1ccccc1)c1ncc(C(F)(F)F)c(Nc2ccc3c(c2)CCC(=O)N3)n1` [Example 184b, 6-((2-(methyl(phenyl)amino)-5-(trifluoromethyl)pyrimidin-4-yl)amino)-3,4-dihydroquinolin-2(1H)-one] was tested, and the IC50 was under 200 nM.
`O=C1CCc2cc(Nc3ncc(C(F)(F)F)c(NC4CNC4)n3)ccc2N1` [Example 198a, 6-((4-(azetidin-3-ylamino)-5-(trifluoromethyl)pyrimidin-2-yl)amino)-3,4-dihydroquinolin-2(1H)-one] was tested, and the IC50 was 200 to 2000 nM.
Compound `FC(F)(F)c1cnc(Nc2cncnc2)nc1NC1CC1` [Example 203, N4-cyclopropyl-N2-(pyrimidin-5-yl)-5-(trifluoromethyl) pyrimidine-2,4-diamine] has an IC50 of under 200 nM.
With `FC(F)(F)c1cnc(Nc2ccc3c(c2)CCNC3)nc1NC1CC1` [Example 309, N4-cyclopropyl-N2-(1,2,3,4-tetrahydroisoquinolin-6-yl)-5-(trifluoromethyl)pyrimidine-2,4-diamine.HCl] the IC50 was under 200 nM.
In the case of `CNC(=O)c1cccc(Oc2nc(Nc3ccc4c(c3)CCC(=O)N4)ncc2Br)c1` [Example 268, 3-((5-bromo-2-((2-oxo-1,2,3,4-tetrahydroquinolin-6-yl)amino)pyrimidin-4-yl)oxy)-N-methylbenzamide], the IC50 is reported as 200 to 2000 nM.
`COc1cc(Nc2ncc(Br)c(Oc3ccccc3-c3nc(C)co3)n2)cc(OC)c1OC` [Example 290, 5-bromo-4-(2-(4-methyloxazol-2-yl)phenoxy)-N-(3,4,5-trimethoxyphenyl)pyrimidin-2-amine] was tested, and the IC50 was over 2000 nM.
For `COc1cc(Nc2ncc(Br)c(Oc3ccccc3C(=O)N3CCCC3)n2)cc(OC)c1OC` [Example 277, (2-((5-bromo-2-((3,4,5-trimethoxyphenyl)amino)pyrimidin-4-yl)oxy)phenyl)(pyrrolidin-1-yl)methanone], the IC50 was under 200 nM.
